Here are results for one compound from US11253531B2, “Lipid supplements for reducing nerve action potentials” (Nutritional Therapeutics, Inc., priority 2011, dated 2022).

The test system of this assay is dorsal root ganglia neurons. Put plainly: Field stimulation of cultured neurons, membrane potential by di8ANEPPS fluorescence. The class given is cell-based, rat. The note with it: caffeine added to NTFL.

Source text: The procedure below details a study performed on one type of cultured nerve cells, namely dorsal root ganglia neurons, using a 10% solution of glycerolphospholipids in combination with inulin (NTFL).
The cultured cells were then exposed to an aqueous solution of the lipid supplement comprising glycerolphospholipids in combination with inulin, referred to as NTFL nanomicelles.
This was used as an indicator of membrane potential instead of microelectrodes because patching these neurons or the use of microelectrodes can be difficult in these studies in the presence of the NTFL nanomicellles solutions.
To perform the comparison, electrodes were applied to the bath containing the cultured neurons and field stimulation was provided by passed current through the bath. This caused depolarization of the nerve cells resulting in fluorescence of the di8ANEPPS.

`Cn1c(=O)c2c(ncn2C)n(C)c1=O` [caffeine]: the “effect on nerve conduction” value was “did not appear to have an effect on nerve conduction”.
